Measured values from the supplement of paper PMC10307832.

Key:
Assay in all cases: relative viability (nuclei count vs DMSO), 5 days (fraction); higher = more cells survive
Cediranib + Linsitinib = compound: COc1cc2c(Oc3ccc4[nH]c(C)cc4c3F)ncnc2cc1OCCCN1CCCC1 [Cediranib] + C[C@]1(O)C[C@@H](c2nc(-c3ccc4ccc(-c5ccccc5)nc4c3)c3c(N)nccn32)C1 [Linsitinib] (partner 1 µM)
Method in brief: (§1)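 Relative viability divides the nuclei count in treated wells by that in vehicle wells. Lung cancer cell lines were seeded in 1536-well plates, dosed by pin tool the next day, and fixed and stained after 5 days in one step with final 0.05% Triton X-100, 1% formaldehyde and 1 ug/ml Hoechst. Dosing was a single drug or a fixed anchor-drug dose plus five library-drug doses (not always all listed) in √10 steps, and values are medians of duplicate plates imaged at 4×.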

Cediranib + Olaparib = compound: COc1cc2c(Oc3ccc4[nH]c(C)cc4c3F)ncnc2cc1OCCCN1CCCC1 [Cediranib] + O=C(c1cc(Cc2n[nH]c(=O)c3ccccc23)ccc1F)N1CCN(C(=O)C2CC2)CC1 [Olaparib] (partner 8 µM)
Method in brief: as §1

Halofuginone + Foretinib = compound: O=C(C[C@H]1NCCC[C@@H]1O)Cn1cnc2cc(Br)c(Cl)cc2c1=O (racemic) [Halofuginone] + COc1cc2c(Oc3ccc(NC(=O)C4(C(=O)Nc5ccc(F)cc5)CC4)cc3F)ccnc2cc1OCCCN1CCOCC1 [Foretinib] (partner 0.25 µM)
Method in brief: as §1

Halofuginone + Alpelisib = compound: O=C(C[C@H]1NCCC[C@@H]1O)Cn1cnc2cc(Br)c(Cl)cc2c1=O (racemic) [Halofuginone] + Cc1nc(NC(=O)N2CCC[C@H]2C(N)=O)sc1-c1ccnc(C(C)(C)C(F)(F)F)c1 [Alpelisib] (partner 2 µM)
Method in brief: as §1

Cell Line	relative viability (Cediranib + Linsitinib; first compound 0.04 µM)	relative viability (Cediranib + Linsitinib; first compound 0.1265 µM)	relative viability (Cediranib + Linsitinib; first compound 0.4 µM)	relative viability (Cediranib + Linsitinib; first compound 1.265 µM)	relative viability (Cediranib + Linsitinib; first compound 4 µM)	relative viability (Cediranib + Olaparib; first compound 0.04 µM)	relative viability (Cediranib + Olaparib; first compound 0.1265 µM)	relative viability (Cediranib + Olaparib; first compound 0.4 µM)	relative viability (Cediranib + Olaparib; first compound 1.265 µM)	relative viability (Cediranib + Olaparib; first compound 4 µM)	relative viability (Halofuginone + Foretinib; first compound 0.001 µM)	relative viability (Halofuginone + Foretinib; first compound 0.003162 µM)	relative viability (Halofuginone + Foretinib; first compound 0.01 µM)	relative viability (Halofuginone + Foretinib; first compound 0.03162 µM)	relative viability (Halofuginone + Foretinib; first compound 0.1 µM)	relative viability (Halofuginone + Alpelisib; first compound 0.001 µM)	relative viability (Halofuginone + Alpelisib; first compound 0.003162 µM)	relative viability (Halofuginone + Alpelisib; first compound 0.01 µM)	relative viability (Halofuginone + Alpelisib; first compound 0.03162 µM)	relative viability (Halofuginone + Alpelisib; first compound 0.1 µM)
201T	1.11	1.18	0.941	1.01	0.974	0.805	0.862	0.808	0.829	0.828	1.09	1.09	0.931	0.558	0.193	1.04	1.01	1.01	0.998	0.841
A549	0.723	0.644	0.543	0.633	0.471	0.353	0.23	0.302	0.333	0.473	1.06	0.921	0.925	0.507	0.112	0.919	0.765	0.685	0.44	0.15
A-427	1.17	–	0.984	1.07	1.17	0.802	–	0.668	0.67	0.753	0.979	1.03	1.02	1.06	0.915	1.07	1.14	1.05	0.978	0.94
ABC-1	0.656	0.97	0.799	–	0.786	0.875	0.997	0.823	1.14	0.726	1.28	1.38	1.07	1.13	0.9	1.2	0.936	1	0.947	1.03
BEN	1.16	0.799	0.82	0.9	0.647	1.11	0.613	1.05	1.13	1.04	0.71	0.815	0.889	0.646	0.242	0.974	1.12	1.1	0.975	0.478
CAL-12T	0.95	0.864	0.691	0.865	0.714	0.815	0.646	0.647	0.74	0.786	1.33	1.21	1.08	1.41	0.898	1.4	1.16	1.03	1.11	1.02
COR-L23	1.08	0.871	0.939	0.806	1.14	0.429	0.333	0.291	0.377	0.309	1	0.996	1.02	0.904	0.353	0.808	0.823	0.754	0.635	0.118
COR-L 105	–	0.909	0.946	0.972	0.938	0.737	0.657	0.715	0.707	0.687	1.07	0.894	1.31	1.09	0.846	1.31	0.934	0.857	0.831	0.629
